Measured values taken from patent US6133279A, “Therapeutic agents for renal diseases and organ preservatives” (Chugai Seiyaku Kabushiki Kaisha, priority 1996, dated 2000).
Where two headings read alike, the source gives them in different places.

Legend:
Format in all cases: cell-based
[1] = tested on: porcine kidney-derived LLC-PK1 cells; test: Protective effect against oxidized LDL-induced injury of porcine kidney-derived LLC-PK1 cells (2); settings: Sus scrofa, LLC-PK1, 6 h, mean ± standard deviation, read-out: Cytoprotection rate (%)
Protocol: For the purpose of evaluating in vitro cytoprotective effect of the compounds of the present invention, a cytoprotective study was performed using porcine kidney-derived LLC-PK1 cells (ATCC-CRL-13921) injured by oxidized low-density lipoprotein (oxidized LDL) in the same manner as in Test example 1 with the exception of some points.
Preparation of oxidized LDL and the conditions for cell culture and addition of test compounds were the same as in Test example 1. However, oxidized LDL was not diluted with saline and added to cells in an amount of 25 μl/well to a concentration of 91 μg/ml and the cells were cultured for 6 hours after addition of the oxidized LDL. Then, 150 μl/well of the culture medium were collected and measured for the lactate dehydrogenase (LDH) level (LD-L: SIGMA DIAGNOSTICS) having leaked in the medium.

[2] = tested on: murine mesangial derived MES13 cells; test: Protective effect against oxidized LDL-induced injury of murine mesangial cells (in vitro); settings: Mus musculus, MES13, 10 h, mean ± standard deviation, read-out: Cytoprotection rate (%)
Protocol: For the purpose of evaluating in vitro cytoprotective effect of the compounds of the present invention on mesangial cells, a cytoprotective study was performed using murine mesangial derived MES13 cells (ATCC-CRL-1927) injured by oxidized LDL.
Oxidized LDL was prepared in the same manner as in Test example 1. Cell culture was carried out by plating 2.5×10^4 cells/250 μl/well on a 48-well plate using FBS-free medium (mixture of DME medium and F12 medium in a ratio of 3:1). Test compounds were dissolved or suspended in ethanol and added to the wells in an amount of 1.25 μl/well to a concentration of 1 or 10 μM in each well. After 16 hours or immediately after the addition of the compounds, oxidized LDL was added to cells in an amount of 25 μl/well to a concentration of 91 μg/ml and the cells were cultured for 10 hours after addition of the oxidized LDL. Then, 150 μl/well of the culture medium were collected and measured for the lactate dehydrogenase level (LDL: SIGMA DIAGNOSTICS) having leaked in the medium.
The magnitude of cytoprotective effect was expressed as the cytoprotection rate which was determined by calculating the data assuming that the magnitude in wells containing oxidized LDL is 0% and that the magnitude in containing saline is 100%.

[3] = tested on: porcine kidney-derived LLC-PK1 cells; test: Protective effect against oxidized LDL-induced injury of porcine kidney-derived LLC-PK1 cells (1); settings: Sus scrofa, LLC-PK1, 6 h, mean ± standard deviation, read-out: Cytoprotection rate (%)
Protocol: For the purpose of evaluating in vitro cytoprotective effect of the compounds of the present invention, a cytoprotective study was performed using porcine kidney-derived LLC-PK1 cells (ATCC-CRL-13921) injured by oxidized low-density lipoprotein (oxidized LDL).
Oxidized LDL was prepared by incubating 1 mg/ml of rabbit LDL in PBS (-) in the presence of 10 μM CuSO4 at 37° C. for 24 hours. Cell culture was carried out by plating 1.25×10^4 cells/250 μl/well on a 48-well plate containing M199 medium containing 3% FBS. Test compounds were dissolved or suspended in ethanol and added to the wells in an amount of 1.25 μl/well to a concentration of 0.1, 1 or 10 μM in each well. After 16 hours or immediately after the addition of the compounds, oxidized LDL was added to the wells. Probucol, α-tocopherol and Trolox which is a water-soluble analogue of α-tocopherol were used as reference control compounds. Oxidized LDL was diluted twice with saline and then added to the wells in an amount of 62.5 μl/well to a concentration of 100 μg/ml and the cells were cultured for 6 hours after addition of the oxidized LDL. Then, 162.5 μl/well of the culture medium were collected and measured for the lactate dehydrogenase (LDH) level (LD-L: SIGNA DIAGNOSTICS) having leaked into the medium.
The magnitude of cytoprotective effect was expressed as the cytoprotection rate which was determined by calculating the data assuming that the magnitude in wells containing oxidized LDL is 0% and that the magnitude in wells containing saline is 100%.

[4] = compound added 16 hours before adding oxidized LDL
[5] = compound added immediately before adding oxidized LDL

Structure (SMILES) | inhibition at 0.1 µM [1, 4] [%] | inhibition at 0.1 µM [1, 5] [%] | inhibition at 1 µM [1, 4] [%] | inhibition at 1 µM [1, 5] [%] | inhibition at 10 µM [1, 4] [%] | inhibition at 10 µM [1, 5] [%] | inhibition at 1 µM [2, 4] [%] | inhibition at 1 µM [2, 5] [%] | inhibition at 10 µM [2, 4] [%] | inhibition at 10 µM [2, 5] [%] | inhibition at 0.1 µM [3, 4] [%] | inhibition at 0.1 µM [3, 5] [%] | inhibition at 1 µM [3, 4] [%] | inhibition at 1 µM [3, 5] [%] | inhibition at 10 µM [3, 4] [%] | inhibition at 10 µM [3, 5] [%]
CC(C)(C)c1cc2c(c(C(C)(C)C)c1O)CC1(CCCCC1)O2 [Example 19, 4,6-Di-t-butyl-5-hydroxy-2,3-dihydrobenzofuran-2-spiro-1'-cyclohexane] | 2.7 ± 1.6 | 1.2 ± 0.9 | 60.6 ± 6.1 | 86.8 ± 5.2 | 103 ± 1.2 | 101 ± 2.5 |  |  |  |  |  |  |  |  |  | 
CC(C)(C)c1cc2c(c(C(C)(C)C)c1O)CC1(CCCCCCC1)O2 [Example 21, 4,6-Di-t-butyl-5-hydroxy-2,3-dihydrobenzofuran-2-spiro-1'-cyclooctane] | 15.6 ± 3.6 | 2.5 ± 2.5 | 13.7 ± 13.4 | 6.1 | 16 ± 2.6 | 14.4 ± 3.9 | -7.5 ± 4.2 | -1.5 ± 1.2 | -7 ± 3.4 | 11.9 ± 4.8 |  |  |  |  |  | 
CCCCCC1(CCCCC)Cc2c(cc(C(C)(C)C)c(O)c2C(C)(C)C)S1 [Example 50, 4,6-Di-t-butyl-5-hydroxy-2,2-di-n-pentyl-2,3-dihydrobenzothiophene] |  |  |  |  |  |  |  |  |  |  | 1.9 ± 8 | 9.3 ± 3.3 | 37.4 ± 17.1 | 15.3 | 81.6 ± 4 | 99.2 ± 1.3
CC1Cc2c(cc(C(C)(C)C)c(O)c2C(C)(C)C)S1 (stereo not drawn) [Example 51, 4,6-Di-t-butyl-5-hydroxy-2-methyl-2,3-dihydrobenzothiophene] |  |  |  |  |  |  |  |  |  |  | -6.1 ± 7.6 | 2.2 ± 4.9 | 17.8 ± 18.1 | 28.9 | 99.3 ± 0.7 | 101.4 ± 0.3
CC1(C)Cc2c(cc(C(C)(C)C)c(O)c2C(C)(C)C)S1 [Example 52, 4,6-Di-t-butyl-5-hydroxy-2,2-dimethyl-2,3-dihydrobenzothiophene] |  |  |  |  |  |  |  |  |  |  | 6.5 ± 1.4 | -0.7 ± 1.1 | 41.2 ± 11.9 | 96.9 | 99.1 ± 0.1 | 99.5 ± 0.4
CC(C)(C)c1cc2sccc2c(C(C)(C)C)c1O [Example 54, 4,6-Di-t-butyl-5-hydroxybenzo[b]thiophene] |  |  |  |  |  |  |  |  |  |  | 96 ± 0.5 | 35.9 ± 26.4 | 90 ± 5 | 96.7 | 94.8 ± 2.2 | 98.9 ± 0.4
CC(C)(C)c1cc2c(c(C(C)(C)C)c1O)CC1(CCCCC1)S2 [Example 58, 4,6-Di-t-butyl-5-hydroxy-2,3-dihydrobenzothiophene-2-spiro-1'-cyclohexane] |  |  |  |  |  |  |  |  |  |  | 3.6 ± 18.3 | 11 ± 4 | 95 ± 4.2 | 74.3 | 99.3 ± 0.9 | 101 ± 0.2
CN(C)CC1(C)Cc2c(cc(C(C)(C)C)c(O)c2C(C)(C)C)S1 (stereo not drawn) [Example 61, 4,6-Di-t-butyl-5-hydroxy-2-(N,N-dimethylaminomethyl)-2-methyl-2,3-dihydrobenzothiophene] | 5 ± 1.2 | 5.1 ± 1.5 | 85.7 ± 8.1 | 97.6 | 101.3 ± 0.6 | 101.7 ± 0.5 |  |  |  |  |  |  |  |  |  | 
CC1(CO)Cc2c(cc(C(C)(C)C)c(O)c2C(C)(C)C)S1 (stereo not drawn) [Example 63, 4,6-Di-t-butyl-5-hydroxy-2-hydroxymethyl-2-methyl-2,3-dihydrobenzothiophene] | 4.2 ± 4.4 | 5.9 ± 1.7 | 95.3 ± 3.6 | 97.3 | 100.2 ± 0.4 | 101.1 ± 0.2 |  |  |  |  |  |  |  |  |  | 
CC(C)(C)c1cc2c(c(C(C)(C)C)c1O)CC1(CCSCC1)O2 [Example 68, 4,6-Di-t-butyl-5-hydroxy-2,3-dihydrobenzofuran-2-spiro-4'-tetrahydrothiopyran] | 12 ± 3.6 | 6.3 ± 3.3 | 56.2 ± 4.6 | 85.8 | 102 ± 1.5 | 100.6 ± 0.2 |  |  |  |  |  |  |  |  |  | 
CC(C)(C)c1cc2c(c(C(C)(C)C)c1O)CC1(CCOCC1)S2 [Example 69, 4,6-Di-t-butyl-5-hydroxy-2,3-dihydrobenzothiophene-2-spiro-4'-tetrahydropyran] | 1 ± 4.7 | 4.5 ± 2.1 | 24.6 ± 12.8 | 42.5 | 100.4 ± 0.5 | 101.6 ± 0.7 | 4.2 ± 6.3 | 15.6 ± 4 | 54.8 ± 9.3 | 89.8 ± 0.8 |  |  |  |  |  | 
CC1(CN)Cc2c(cc(C(C)(C)C)c(O)c2C(C)(C)C)O1 (stereo not drawn) [Example 70, 2-Aminomethyl-4,6-di-t-butyl-5-hydroxy-2-methyl-2,3-dihydrobenzofuran] | 17.5 ± 2.2 | 9.9 ± 2.4 | 101 ± 0.7 | 101 | 100.7 ± 0.8 | 101.3 ± 0.6 |  |  |  |  |  |  |  |  |  | 
CC1(CC#N)Cc2c(cc(C(C)(C)C)c(O)c2C(C)(C)C)O1 (stereo not drawn) [Example 71, 4,6-Di-t-butyl-2-cyanomethyl-5-hydroxy-2-methyl-2,3-dihydrobenzofuran] | 10.4 ± 2.2 | 4.3 ± 4.1 | 26.9 ± 2.5 | 80.2 | 105.6 ± 0.6 | 107 ± 2 |  |  |  |  |  |  |  |  |  | 
CC1(C(=O)O)Cc2c(cc(C(C)(C)C)c(O)c2C(C)(C)C)O1 (stereo not drawn) [Example 72, 4,6-Di-t-butyl-5-hydroxy-2-methyl-2,3-dihydrobenzofuran-2-carboxylic acid] | 2.3 ± 1.3 | 2.7 ± 4.3 | 14.8 ± 2 | 14 | 95.9 ± 1.3 | 95.2 ± 0.9 |  |  |  |  |  |  |  |  |  | 
COC(=O)C1(C)Cc2c(cc(C(C)(C)C)c(O)c2C(C)(C)C)O1 (stereo not drawn) [Example 73, 4,6-Di-t-butyl-5-hydroxy-2-methoxycarbonyl-2-methyl-2,3-dihydrobenzofuran] | 5.7 ± 1.4 | 4.8 ± 2.9 | 78.9 ± 16.9 | 97.8 | 99.7 ± 1.4 | 99.4 ± 0.3 |  |  |  |  |  |  |  |  |  | 
CC1(C(=O)N2CCCC2)Cc2c(cc(C(C)(C)C)c(O)c2C(C)(C)C)O1 (stereo not drawn) [Example 74, 1-(4,6-Di-t-butyl-5-hydroxy-2-methyl-2,3-dihydrobenzofuran-2-carbonyl)pyrrolidine] | 25.2 ± 3.3 | 10.1 ± 2.3 | 54.8 ± 3.8 | 72.7 | 103.6 ± 0.5 | 103.5 ± 0.6 | -10.2 ± 1.4 | 18.7 ± 2.8 | 24.5 ± 3.3 | 73 ± 0.3 |  |  |  |  |  | 
